Values of other authors as cited in patent US20040005304A1, “Novel compositions and methods for treating neurological disorders and associated gastrointestinal conditions” (MAK Wood, Inc., priority 2002, published 2004).

System: DPPIV
Conditions: cultured mouse intestinal wall cells (enterocyte cells)

O=C[C@H](O)[C@@H](O)[C@@H](O)[C@H](O)CO [galactose]
expression of DPPIV: increase the expression of DPPIV
